From US20150322083A1, “(THIENO[2,3-b][1,5]BENZOXAZEPIN-4-YL)PIPERAZIN-1-YL COMPOUNDS AS SELECTIVE 5-HT2A INVERSE AGONISTS” (Eli Lilly and Company, priority 2014, published 2015)

Columns and labels:
Dopamine D1 = Dopamine D1 (Homo sapiens, UniProt P21728); test: Dopamine D1 binding
Experimental: (§1) Curves are evaluated using a 4-parameter logistic nonlinear equation to obtain the concentration of competitor causing 50% inhibition of radioligand binding (IC50). Equilibrium dissociation constants (Ki) are calculated according to the equation Ki=IC50/(1+L/Kd), where L equals the concentration of radioligand used in the experiment and Kd equals the equilibrium dissociation constant of the radioligand for the receptor, determined from standard saturation analysis or homologous competition experiments. Reported values for Ki, where n values are indicated, are shown as geometric mean±the standard error of the mean (SEM), with the number of replicate determinations indicated by n. Geometric means are calculated by the equation GeoMean=10̂(Average(log Ki 1+log Ki 2+ . . . log Ki n)/[…]).
(§2) Further, the compounds of the invention may be tested in binding assays and functional activity assays by well known methods for other physiologically important receptors such as, but not limited to, the hERG channel, other serotonin receptors (specifically 5-HT1B receptors, lack of agonist activity at 5-HT2B receptors, 5-HT2C, 5-HT5, 5-HT6, and 5-HT7 receptors), dopaminergic receptors (specifically D1, D2, and D3), H1 receptors, GABAA receptors, adrenergic receptors and monoamine transporters.

[1] = biological target: T1, recombinant 5-HT2C receptors (human) (Homo sapiens, UniProt P28335); test: 5-HT2C competition binding assay ([125I]-(±)DOI, SPA)
T1 construct: expressed in transfected cells
T1 sequence (P28335 33-458): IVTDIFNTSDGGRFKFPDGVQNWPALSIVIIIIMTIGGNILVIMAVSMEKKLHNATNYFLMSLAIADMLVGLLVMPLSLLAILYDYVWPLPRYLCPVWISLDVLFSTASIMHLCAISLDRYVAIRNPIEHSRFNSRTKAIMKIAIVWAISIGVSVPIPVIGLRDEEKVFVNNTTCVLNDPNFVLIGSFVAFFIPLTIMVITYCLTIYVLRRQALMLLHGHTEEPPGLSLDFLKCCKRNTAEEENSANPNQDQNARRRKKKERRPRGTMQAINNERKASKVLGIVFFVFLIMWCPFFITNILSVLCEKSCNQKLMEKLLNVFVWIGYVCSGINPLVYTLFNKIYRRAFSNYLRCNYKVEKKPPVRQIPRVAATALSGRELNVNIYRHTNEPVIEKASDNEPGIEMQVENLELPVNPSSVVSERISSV
Experimental: [^125I]-(±)DOI binding experiments are carried out in SPA 96-well format. Membranes used in this assay are prepared from AV-12 cells stably expressing recombinant 5-HT2C receptors (human). The incubation is initiated by the addition of a mixture of WGA PVT SPA beads (0.5 mg/well, Perkin Elmer (MA, USA), RPNQ0001) and 2.5 μg membranes to assay buffer (50 mM Tris-HCl, 10 mM MgCl2, 0.5 mM EDTA, 10 μM pargyline, 0.1% ascorbic acid, pH7.4) containing 0.2 nM [[^125I]-(±)DOI and varying concentrations of the test compound (10 point concentration response curves). Non-specific binding is determined in the presence of 20 μM 1-(1-naphthyl)piperazine. Samples are incubated for 4 hr. at room temperature (22° C.) and then read in a microplate scintillation counter.
(§3) Curves are evaluated using a 4-parameter logistic nonlinear equation to obtain the concentration of competitor causing 50% inhibition of radioligand binding (IC50). Equilibrium dissociation constants (Ki) are calculated according to the equation Ki=IC50/(1+L/Kd), where L equals the concentration of radioligand used in the experiment and Kd equals the equilibrium dissociation constant of the radioligand for the receptor, determined from standard saturation analysis or homologous competition experiments. […]

Adrenergic alpha1A = Adrenergic alpha1A (Homo sapiens, UniProt P35348); test: Adrenergic alpha1A binding
Adrenergic alpha1A, sequence (P35348 whole entry): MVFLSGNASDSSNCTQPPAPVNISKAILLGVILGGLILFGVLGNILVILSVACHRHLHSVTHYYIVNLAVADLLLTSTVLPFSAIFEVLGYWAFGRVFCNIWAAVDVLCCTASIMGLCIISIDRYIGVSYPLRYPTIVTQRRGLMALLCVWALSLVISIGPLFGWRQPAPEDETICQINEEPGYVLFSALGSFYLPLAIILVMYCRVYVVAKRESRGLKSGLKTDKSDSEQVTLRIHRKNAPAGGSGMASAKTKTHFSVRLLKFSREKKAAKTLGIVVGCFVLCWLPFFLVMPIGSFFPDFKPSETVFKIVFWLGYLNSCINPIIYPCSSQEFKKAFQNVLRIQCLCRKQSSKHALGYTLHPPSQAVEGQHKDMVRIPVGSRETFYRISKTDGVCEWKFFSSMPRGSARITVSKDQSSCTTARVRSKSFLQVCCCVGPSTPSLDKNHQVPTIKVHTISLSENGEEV
Experimental: as §1, §2

5-HT2A receptor = biological target: T2, 5-HT2A receptor (Rattus norvegicus, UniProt P14842); test: 5-HT2A receptor occupancy in vivo (MDL 100907 tracer); set-up: species or system male Sprague-Dawley rats; conditions: oral gavage, 1 hr. before tracer
T2 construct: from tissue; host or cells: rat brain (frontal cortex vs cerebellum), in vivo
T2 sequence (P14842 whole entry): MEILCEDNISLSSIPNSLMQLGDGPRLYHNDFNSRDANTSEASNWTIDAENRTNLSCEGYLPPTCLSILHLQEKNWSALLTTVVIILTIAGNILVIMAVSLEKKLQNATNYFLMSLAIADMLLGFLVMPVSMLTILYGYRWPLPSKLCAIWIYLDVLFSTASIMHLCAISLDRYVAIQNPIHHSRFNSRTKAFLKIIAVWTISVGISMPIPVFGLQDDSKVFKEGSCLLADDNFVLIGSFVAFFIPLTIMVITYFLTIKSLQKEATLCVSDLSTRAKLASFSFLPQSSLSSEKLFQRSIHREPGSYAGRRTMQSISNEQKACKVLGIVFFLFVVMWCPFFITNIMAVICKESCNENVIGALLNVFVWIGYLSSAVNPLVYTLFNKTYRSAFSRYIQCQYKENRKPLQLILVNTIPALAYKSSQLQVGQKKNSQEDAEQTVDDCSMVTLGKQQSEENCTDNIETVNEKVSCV
Experimental: Briefly, male Sprague-Dawley rats (Harlan Sprague-Dawley, Indianapolis, Ind.) weighing approximately 230-280 g are given ad lib access to food and water until the beginning of the 3 hr. experimental protocol. 1 mg/Kg ketanserin (non-selective 5-HT2A antagonist) is used as a positive control to establish assay validity. Test compounds or control are administered by oral gavage in a vehicle comprised of 20% hydroxypropyl beta-cyclodextrin. MDL 100907 ((R)-(+)-α-(2,3-Dimethoxyphenyl)-1-[2-(4-fluorophenyl)ethyl]-4-piperidinemethanol), a selective 5-HT2A antagonist, is used as a tracer. […] It is at the time of tracer administration that receptor occupancy (RO) is considered to be measured. […] The level of MDL 100907 tracer is measured in each cortical and cerebellar sample. RO is calculated using the well-established ratio method which employs a region of high receptor density representative of total binding (frontal cortex) normalized by an area without or with very low levels of receptor (cerebellum). […]
MDL 100907 Analysis: Cortex and cerebellar samples are weighed and placed in conical centrifuge tubes on ice. […] Standards are prepared by adding known quantities of analyte to brain tissue samples from non-treated rats and processing as described above.+− […]

Adrenergic alpha1B = Adrenergic alpha1B (Homo sapiens, UniProt P35368); test: Adrenergic alpha1B binding
Adrenergic alpha1B, sequence (P35368 whole entry): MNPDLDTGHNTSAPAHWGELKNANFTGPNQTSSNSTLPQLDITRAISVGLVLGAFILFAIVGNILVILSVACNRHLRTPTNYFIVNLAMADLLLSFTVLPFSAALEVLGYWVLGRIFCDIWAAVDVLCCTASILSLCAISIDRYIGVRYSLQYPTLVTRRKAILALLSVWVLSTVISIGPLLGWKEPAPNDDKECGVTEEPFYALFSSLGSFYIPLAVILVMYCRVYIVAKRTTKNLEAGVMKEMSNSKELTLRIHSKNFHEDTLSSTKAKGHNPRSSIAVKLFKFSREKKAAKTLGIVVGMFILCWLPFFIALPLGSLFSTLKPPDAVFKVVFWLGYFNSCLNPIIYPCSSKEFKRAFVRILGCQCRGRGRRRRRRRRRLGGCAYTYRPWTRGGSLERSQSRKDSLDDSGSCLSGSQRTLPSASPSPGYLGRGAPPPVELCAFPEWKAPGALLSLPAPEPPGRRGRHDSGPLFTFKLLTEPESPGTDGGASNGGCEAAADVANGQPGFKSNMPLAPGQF
Experimental: as §1, §2

[2] = biological target: recombinant human 5-HT2A receptor (Homo sapiens, UniProt P28223); test: 5-HT2A competition binding assay ([3H]-Ketanserin, SPA); set-up: expressed in transfected cells
recombinant human 5-HT2A receptor, sequence (P28223 whole entry): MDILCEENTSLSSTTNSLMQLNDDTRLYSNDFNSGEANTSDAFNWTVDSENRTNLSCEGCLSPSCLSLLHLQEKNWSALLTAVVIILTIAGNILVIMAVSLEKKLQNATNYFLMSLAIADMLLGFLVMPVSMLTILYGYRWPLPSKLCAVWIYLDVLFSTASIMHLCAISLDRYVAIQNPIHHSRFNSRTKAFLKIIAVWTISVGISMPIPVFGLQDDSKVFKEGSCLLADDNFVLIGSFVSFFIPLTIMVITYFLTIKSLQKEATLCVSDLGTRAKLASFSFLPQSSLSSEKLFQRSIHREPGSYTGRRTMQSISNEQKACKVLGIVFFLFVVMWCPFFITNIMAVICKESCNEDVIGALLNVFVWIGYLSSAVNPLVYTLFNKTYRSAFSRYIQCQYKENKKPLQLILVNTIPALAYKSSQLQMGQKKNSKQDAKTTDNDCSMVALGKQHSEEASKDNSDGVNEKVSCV
Experimental: [^3H]-Ketanserin binding experiments are carried out in SPA 96-well format. Membranes used in this assay are prepared from AV-12 cells stably expressing recombinant 5-HT2A receptors (human). The incubation is initiated by the addition of a mixture of WGA YSi SPA beads (1 mg/well, Perkin Elmer (MA, USA), Product No. RPNQ0011) and 2 μg membranes to assay buffer (67 mM Tris, 0.5 mM EDTA; pH 7.6) containing 3.1 nM [^3H]-Ketanserin and varying concentrations of the test compound (10 point concentration response curves). Non-specific binding is determined in the presence of 20 μM 1-(1-naphthyl)piperazine. Samples are incubated for 4 hr. at room temperature (22° C.) and then read in a microplate scintillation counter.
as §3

Dopamine D1, sequence (P21728 whole entry): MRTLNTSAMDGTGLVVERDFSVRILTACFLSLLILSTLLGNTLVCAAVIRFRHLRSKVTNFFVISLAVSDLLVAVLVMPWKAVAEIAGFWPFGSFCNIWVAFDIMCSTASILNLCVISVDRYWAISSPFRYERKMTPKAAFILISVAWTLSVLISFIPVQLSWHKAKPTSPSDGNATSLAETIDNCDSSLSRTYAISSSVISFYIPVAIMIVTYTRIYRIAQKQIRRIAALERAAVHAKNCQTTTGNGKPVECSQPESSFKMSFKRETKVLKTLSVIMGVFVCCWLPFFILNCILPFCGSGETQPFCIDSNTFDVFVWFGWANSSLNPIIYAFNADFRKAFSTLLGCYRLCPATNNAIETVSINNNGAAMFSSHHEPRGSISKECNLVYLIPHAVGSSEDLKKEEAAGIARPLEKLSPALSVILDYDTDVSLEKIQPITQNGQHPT

**Q.** Which Ki (Dopamine D1) does the source give for `Cc1ccc2c(c1)Oc1sc(SC(C)C)cc1C(N1CCN(CC(C)(C)C(=O)O)CC1)=N2` [Example 1, 3-[4-(2-isopropylsulfanyl-8-methyl-thieno[2,3-b][1,5]benzoxazepin-4-yl)piperazin-1-yl]-2,2-dimethyl-propanoic acid] here?
**A.** Its Ki is 2640 nM.

**Q.** And the Ki [1]?
**A.** The Ki was 359 nM.

**Q.** And the Ki (Adrenergic alpha1A)?
**A.** Its Ki is 4450 nM.

**Q.** And the ED50 (5-HT2A receptor)?
**A.** The ED50 was 0.54 mg/kg.

**Q.** What about the Ki (Adrenergic alpha1B) of the same compound?
**A.** The Ki was > 15800 nM.

**Q.** What about the Ki [2] of the same compound?
**A.** Its Ki is 4.84 nM.
